Experimental data: patent publication US11254668B2, “Pyrazolo[1,5-A]pyrazin-4-yl and related derivatives” (Pfizer Inc., priority 2017, dated 2022)

Assays:
Assay type in all cases: biochemical
Details in all cases: JAK Caliper enzyme assay
JAK1 = JAK1 (Homo sapiens (Human), UniProt P23458); test: JAK Caliper Enzyme Assay at 1 mM ATP, JAK1
Summary of the method: (§1)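 IC50 (nM) derived from percent conversion of fluorescently labelled peptide, measured by Caliper LabChip mobility-shift separation after EDTA stop. Each JAK family kinase domain (human, recombinant) run at 1 mM ATP and room temperature, conditions set to 20-30% product; DMSO wells define uninhibited baseline.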

JAK3 = JAK3 (Homo sapiens (Human), UniProt P52333); test: JAK Caliper Enzyme Assay at 1 mM ATP, JAK3
JAK3, sequence (P52333 822-1111): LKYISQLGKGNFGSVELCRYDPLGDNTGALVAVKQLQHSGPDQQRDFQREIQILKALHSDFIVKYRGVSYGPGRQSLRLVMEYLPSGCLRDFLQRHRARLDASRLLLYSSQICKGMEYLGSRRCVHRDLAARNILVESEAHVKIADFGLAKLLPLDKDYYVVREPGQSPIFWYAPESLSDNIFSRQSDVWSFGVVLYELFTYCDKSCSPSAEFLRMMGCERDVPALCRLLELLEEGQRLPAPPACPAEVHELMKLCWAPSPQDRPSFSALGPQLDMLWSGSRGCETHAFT
Summary of the method: as §1

TYK2 = TYK2 (Homo sapiens (Human), UniProt P29597); test: JAK Caliper Enzyme Assay at 1 mM ATP, TYK2
TYK2, sequence (P29597 897-1176): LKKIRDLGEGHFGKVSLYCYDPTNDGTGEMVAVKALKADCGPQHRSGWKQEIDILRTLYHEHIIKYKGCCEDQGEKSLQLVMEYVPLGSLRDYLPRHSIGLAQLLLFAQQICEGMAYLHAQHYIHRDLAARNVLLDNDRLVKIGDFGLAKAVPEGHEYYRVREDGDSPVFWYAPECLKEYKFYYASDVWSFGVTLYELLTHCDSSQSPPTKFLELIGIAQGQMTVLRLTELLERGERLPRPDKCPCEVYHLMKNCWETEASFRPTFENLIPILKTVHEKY
Summary of the method: (§2)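 Mobility-shift microfluidic read-out: substrate and phosphopeptide peaks separated, % conversion = product/(product+substrate). Reaction used recombinant human kinase domain, synthetic peptide, 1 mM ATP, RT incubation to 20–30% turnover, quenched with EDTA. Percent effect versus DMSO and positive controls, plotted against concentration.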

JAK2 = JAK2 (Homo sapiens (Human), UniProt O60674); test: JAK Caliper Enzyme Assay at 1 mM ATP, JAK2
JAK2, sequence (O60674 849-1124): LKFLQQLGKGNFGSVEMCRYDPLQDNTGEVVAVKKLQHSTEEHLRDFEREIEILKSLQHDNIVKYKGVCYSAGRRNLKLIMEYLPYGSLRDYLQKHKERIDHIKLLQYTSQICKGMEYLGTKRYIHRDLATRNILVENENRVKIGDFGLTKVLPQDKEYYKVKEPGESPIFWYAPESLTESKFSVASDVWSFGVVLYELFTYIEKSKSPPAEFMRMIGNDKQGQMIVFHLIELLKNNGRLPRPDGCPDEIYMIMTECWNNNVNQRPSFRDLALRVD
Summary of the method: as §2

JAK1, sequence (P23458 875-1153): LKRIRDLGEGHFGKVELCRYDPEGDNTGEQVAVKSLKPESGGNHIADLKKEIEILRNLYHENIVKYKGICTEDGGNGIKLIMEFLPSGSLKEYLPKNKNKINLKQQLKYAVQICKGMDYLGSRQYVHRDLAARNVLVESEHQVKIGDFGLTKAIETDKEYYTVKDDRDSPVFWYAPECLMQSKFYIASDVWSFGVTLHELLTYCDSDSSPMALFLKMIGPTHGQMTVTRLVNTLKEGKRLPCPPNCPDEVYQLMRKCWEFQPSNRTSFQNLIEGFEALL

| IC50 (JAK1) | IC50 (JAK3) | IC50 (TYK2) | IC50 (JAK2) | Compound |
| --- | --- | --- | --- | --- |
| 3.33 µM | > 10 µM | 0.506 µM | 1.48 µM | N#CC[C@]1(n2ncc(-c3cc(-c4cncc(N)n4)cc4ncccc34)n2)C[C@@H](C#N)C1 [Example 396, cis-3-{4-[7-(6-aminopyrazin-2-yl)quinolin-5-yl]-2H-1,2,3-triazol-2-yl}-3-(cyanomethyl)cyclobutanecarbonitrile] |
| 1.9 µM | > 10 µM | 0.204 µM | 1.04 µM | N#CC[C@]1(n2ncc(-c3cc(-c4cnc(N)cn4)cc4ncccc34)n2)C[C@@H](C#N)C1 [Example 398, cis-3-{4-[7-(5-aminopyrazin-2-yl)quinolin-5-yl]-2H-1,2,3-triazol-2-yl}-3-(cyanomethyl)cyclobutanecarbonitrile] |
| > 10 µM | > 10 µM | 2.4 µM | > 10 µM | N#CC[C@]1(n2ncc(-c3cc(-c4cnc(N)cn4)cc4ncccc34)n2)C[C@H](C#N)C1 [Example 399, trans-3-{4-[7-(5-aminopyrazin-2-yl)quinolin-5-yl]-2H-1,2,3-triazol-2-yl}-3-(cyanomethyl)cyclobutanecarbonitrile] |
| 0.748 µM | 9.13 µM | 0.016 µM | 0.067 µM | N#CC[C@]1(n2ncc(-c3cc(-c4ccc(N)nn4)cc4ncccc34)n2)C[C@@H](C#N)C1 [Example 400, cis-3-{4-[7-(6-aminopyridazin-3-yl)quinolin-5-yl]-2H-1,2,3-triazol-2-yl}-3-(cyanomethyl)cyclobutanecarbonitrile] |
| 3.7 µM | > 10 µM | 0.055 µM | 0.369 µM | N#CC[C@]1(n2ncc(-c3cc(-c4ccc(N)nn4)cc4ncccc34)n2)C[C@H](C#N)C1 [Example 401, trans-3-{4-[7-(6-aminopyridazin-3-yl)quinolin-5-yl]-2H-1,2,3-triazol-2-yl}-3-(cyanomethyl)cyclobutanecarbonitrile] |
| > 10 µM | > 10 µM | 2.53 µM | 6.29 µM | Cc1cncc(-c2cc(-c3cnn([C@]4(CC#N)C[C@H](C#N)C4)n3)c3cccnc3c2)n1 [Example 402, cis-3-(cyanomethyl)-3-{4-[7-(6-methylpyrazin-2-yl)quinolin-5-yl]-2H-1,2,3-triazol-2-yl}cyclobutanecarbonitrile] |
| > 10 µM | > 10 µM | 7.19 µM | > 10 µM | Cc1cncc(-c2cc(-c3cnn([C@]4(CC#N)C[C@@H](C#N)C4)n3)c3cccnc3c2)n1 [Example 403, trans-3-(cyanomethyl)-3-{4-[7-(6-methylpyrazin-2-yl)quinolin-5-yl]-2H-1,2,3-triazol-2-yl}cyclobutanecarbonitrile] |
| > 10 µM | > 10 µM | 7.4 µM | > 10 µM | Cc1ncc(N)nc1-c1cc(-c2cnn([C@]3(CC#N)C[C@H](C#N)C3)n2)c2cccnc2c1 [Example 404, cis-3-{4-[7-(6-amino-3-methylpyrazin-2-yl)quinolin-5-yl]-2H-1,2,3-triazol-2-yl}-3-(cyanomethyl)cyclobutanecarbonitrile] |
| > 10 µM | > 10 µM | 3.06 µM | > 10 µM | COc1ncc(-c2cc(-c3cnn(C4(CC#N)CN(S(C)(=O)=O)C4)n3)c3cccnc3c2)cn1 [Example 405, [3-{4-[7-(2-methoxypyrimidin-5-yl)quinolin-5-yl]-2H-1,2,3-triazol-2-yl}-1-(methylsulfonyl)azetidin-3-yl]acetonitrile] |
| > 10 µM | > 10 µM | 2.15 µM | > 10 µM | N#CC[C@]1(n2ncc(-c3cc(-c4ncc(OCCO)cn4)cc4ncccc34)n2)C[C@@H](C#N)C1 [Example 406, cis-3-(cyanomethyl)-3-(4-{7-[5-(2-hydroxyethoxy)pyrimidin-2-yl]quinolin-5-yl}-2H-1,2,3-triazol-2-yl)cyclobutanecarbonitrile] |
